Results as given in patent US9399631B2, “Polyphenol proteasome inhibitors, synthesis, and methods of use” (UNIVERSITY OF SOUTH FLORIDA, priority 2003, dated 2016).
Where a SMILES comes first, the peptide text is derived from it. [ ]: non-standard residue; d: D form. Nle = CCCC[C@H](N)C(=O)O

Key:
[1] = biological target: T1, 20S eukaryotic proteasome (Oryctolagus cuniculus, UniProt G1T4Q9); assay: Inhibition of chymotrypsin-like activity of purified eukaryotic 20S proteasome (Suc-Leu-Leu-Val-Tyr-AMC); type: biochemical, rabbit
T1 construct: purchased BOSTON BIOCHEM (Cambridge, Mass.)
T1 sequence (G1T4Q9 1-263): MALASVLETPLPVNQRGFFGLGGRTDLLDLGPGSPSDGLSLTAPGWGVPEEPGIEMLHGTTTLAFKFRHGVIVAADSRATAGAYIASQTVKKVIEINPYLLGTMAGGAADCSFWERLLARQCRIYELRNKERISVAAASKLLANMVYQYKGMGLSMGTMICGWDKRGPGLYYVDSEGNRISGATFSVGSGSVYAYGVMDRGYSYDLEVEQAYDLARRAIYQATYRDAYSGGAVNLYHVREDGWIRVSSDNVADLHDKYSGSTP
Procedure: Materials. Highly purified tea polyphenols (−)-EGCG (>95%), (−)-GCG (>98%), (−)-ECG (>98%), (−)-CG (>98%), fetal calf serum, propidium iodide, 3-[4,5-dimethylthiazol-2-yl]-2,5-diphenyltetrazolium bromide (MTT), RNase A, and DMSO were purchased from Sigma (St. Louis, Mo.). (+)-EGCG, benzyl-protected-(+)-EGCG, (+)-GCG, (−)-EGCG-amide, and (+)-EGCG-amide were prepared by enantioselective synthesis (see below). Purified 20S eukaryotic proteasome from rabbit was purchased from BOSTON BIOCHEM (Cambridge, Mass.). Purified 20S prokaryotic proteasome (Methanosarcina thermophile, Recombinant, E. coli) was purchased from CALBIOCHEM (La Jolla, Calif.). Fluorogenic peptide substrates Suc-Leu-Leu-Val-Tyr-AMC (for the proteasomal chymotrypsin-like activity) was obtained from Calbiochem (La Jolla, Calif.). RPMI 1640 medium, Dulbecco's modified Eagle's medium, MEM non-essential amino acids solution, MEM-sodium pyruvate solution, penicillin, and streptomycin were from INVITROGEN (Carlsbad, Calif.). Monoclonal antibody to p27^Kip was purchased from PHARMINGEN (San Diego, Calif.); polyclonal antibodies to IκB-α, Bax and actin, and monoclonal antibody to ubiquitin were from SANTA CRUZ Biotechnology Inc. (Santa Cruz, Calif.).
(§1) Inhibition of purified 20S proteasome activity by natural or synthetic GTPs. Purified prokaryotic (0.5 μg) or eukaryotic (0.02 μg) 20S proteasome was incubated with 20 μM fluorogenic peptide substrate, Suc-Leu-Leu-Val-Tyr-AMC for 30 min at 37° C. in […] of assay buffer (50 mM Tris-HCl, pH 7.5), with or without a natural or synthetic tea polyphenol. After incubation, production of hydrolyzed 7-amido-4-methyl-coumarin (AMC) groups was measured using a multi-well plate VERSAFLUOR Fluorometer with an excitation filter of 380 nm and an emission filter of 460 nm (BIO-RAD), and a multi-well plate reader Wallac 1420 VICTORTM^2 with an excitation filter of 355 nm and an emission filter of 460 nm (EG&G WALLAC).
Purified prokaryotic (0.5 μg) or eukaryotic (0.02 μg) 20S proteasome was incubated with 20 μM fluorogenic peptide substrate, Suc-Leu-Leu-Val-Tyr-AMC for 30 minutes at 37° C. in 100 μl of assay buffer ([…] Tris-HCl, pH 7.5), with or without a natural or synthetic tea polyphenol. After incubation, production of hydrolyzed AMC groups was measured using a multi-well plate VERSAFLUOR Fluorometer with an excitation filter of 380 nm and an emission filter of 460 nm.
(−)-EGCG at 1 μM was incubated with eukaryotic 20S proteasome (0.02 μg) and suc-LLVY-AMC (20 μM) for the times indicated in FIG. 7. The chymotrypsin activity was measured and graphed in FIG. 7. Values are means from 4 independent experiments, and error bars represent standard deviations.
In the second experiment (−)-EGCG at 1 μM was pre-incubated with (SDS-pre) or without 0.01% SDS (no SDS) for 1 hour, followed by addition of eukaryotic 20S proteasome (0.02 μg) and suc-LLVY-AMC (20 μM). “SDS-post” represents the same treatment as “no SDS” except 0.01% SDS was added 1 hour after addition of the proteasome, (−)-EGCG and the substrate. AMC liberation was measured by fluorescence at each indicated time point and the percentage of chymotrypsin activity was determined. Values are means from 4 independent experiments, and error bars represent standard deviations.

[2] = biological target: T2, purified 20S proteasome (UniProt G1T4Q9); assay: Inhibition of chymotrypsin-like activity of purified 20S proteasome (source not stated); type: biochemical; details: chymotrypsin-like activity of purified 20S proteasome
T2 construct: IC50; other: chymotrypsin-like activity of purified 20S proteasome
Procedure: as §1

[3] = test system: LNCaP cells; assay: Western blot of proteasome target proteins in LNCaP cells; type: cell-based, human; details: 50 μM, 3 to 12 hours
Procedure: (§2) Cell Culture, Cell Extract Preparation, and Western Blot Assay. Human leukemia Jurkat T and prostate cancer LNCaP cells were cultured in RPMI 1640 medium supplemented with 10% fetal calf serum, 100 units/ml of penicillin, and 100 μg/ml streptomycin. Human immortalized, non-transformed NK cells (YT cell line) (38) were cultured in RPMI 1640 supplemented with 1 mM MEM sodium pyruvate solution, 0.1 mM MEM non-essential amino acids solution, 10% fetal calf serum. 100 units/ml penicillin, and 100 μg/ml streptomycin. Normal (WI-38) and simian virus 40 (SV40)-transformed (VA-13) human fibroblasts were grown in Dulbecco's modified Eagle's medium supplemented with 10% fetal calf serum, 100 units/ml of penicillin and 100 μg/ml of streptomycin. All cells were maintained at 37° C. in a humidified incubator with an atmosphere of 5% CO2. A whole cell extract was prepared in accordance with An et al. (An, B. et al. Cell Death Differ, 1998, 5:1062-75). Briefly, cells were harvested, washed with PBS twice, and homogenized in a lysis buffer [50 mM Tris-HCl (pH 8.0), 5 mM EDTA, 150 mM NaCl, 0.5% NP-40, 0.5 mM phenylmethylsulfonyl fluoride, and 0.5 mM dithiothreitol] for 30 min at 4° C. Afterwards, lysates were centrifuged at 12,000×g for 15 min at 4° C., and the supernatants were collected as whole cell extracts. Equal amounts of protein extract (60 μg) were resolved by SDS-polyacrylamide gel electrophoresis and transferred to a nitrocellulose membrane using a Semi-Dry Transfer system (BIO-RAD, Hercules, Calif.). Jurkat T, LNCaP, or DU-145 cells were treated with various concentrations of synthetic or natural tea polyphenols for indicted hours. The enhanced chemiluminescence (ECL) Western blot analysis was then performed using specific antibodies to the proteins of interest (p^27kip, IκB-α, PARP, Bax or actin). The ratio of p27 or IκB-α to the corresponding actin was determined by scanning intensities of the protein bands.
To investigate whether (−)-EGCG-amide and (+)-EGCG-amide inhibit intact tumor cell proteasome activity, human prostate cancer LNCaP cells were treated with 25 μM of (−)- or (+)-EGCG-amide for up to 9 hours, followed by measurement of p27, IκB-α and Bax, three well-known proteasome target proteins (Pagano, M. et al. Science, 1995, 269:682-685; An, B. et al. Cell Death Differ, 1998, 5:1062-75; Sun, J. et al. Cancer Res, 2001, 61:1280-1284; Palombella, V. J. et al. Cell, 1994, 78:773-785; Thompson, J. E. et al. Cell, 1995, 80:573-582; Perkins, N. D. Trends Biochem Sci, 2000, 25:434-440; Chang, Y. C. et al. Cell Growth Differ, 1998, 9:79-84; Li, B. and Dou, Q. P. Proc Natl Acad Sci USA, 2000, 97:3850-3855; Nam, S. et al. Cancer Epidemiol Biomarkers Prey, 2001, 10:1083-1088). In this experiment (−)-EGCG and (+)-EGCG were used as positive controls.
Having determined that the synthetic GTP-1 to −5 analogs are able to inhibit the proteasomal chymotrypsin-like activity in vitro (FIG. 8), these compounds were investigated for their potency in inhibiting intact tumor cellular proteasome activity. To do so, human prostate cancer LNCaP cells were treated with one of these compounds for the indicated hours, followed by measuring levels of proteasome target proteins, p27, IκB-α, and Bax, and polyubiquitinated proteins.

[4] = test system: LNCaP cells; assay: Soft agar colony formation assay; type: cell-based, human; details: 50 μM, 14 day-incubation
Procedure: Soft Agar Assay. The soft agar assay was performed according to Smith et al. (Smith, D. M. et al. Mol Med, 2002, 8:382-392) with a few modifications. In brief, in a six-well plate, a bottom feeder layer (0.6% agar) was prepared with DMEM media containing 10% fetal bovine serum, 100 units/ml penicillin, and 100 μg/ml streptomycin. A top layer (0.3% agar) was prepared with DMEM and the same media as described above but containing 2×10^4 prostate cancer LNCaP cells and indicated analogs or DMSO as a control. Plates were incubated at 37° C. in 5% CO2 in a humidified incubator for two weeks. MTT (1 mg/ml) was added to each well and incubated overnight to allow complete formation of purple formazan crystals. The plates were then scanned and photographed, and the number of colonies was quantified by QUANTITY ONE v.4.0.3 software (Bio-Rad, Hercules, Calif.).
The […] effects of several GTP analogs were investigated with a soft agar assay that measures the transforming activity of human tumor cells. LNCaP cells were plated in soft agar (see Materials and Methods) along with 50 μM of GTP-1, -2, -3, (−)-EGCG (as a positive control; Smith, D. M. et al. Mol Med, 2002, 8:382-392, 2002), or the solvent (as a negative control), followed by a 14 day-incubation to allow for colony formation (FIGS. 12A and 12B).
In a second experiment, LNCaP cells were plated in soft agar along with 10 μM of each indicated GTP or solvent (H2O), followed by a 14 day-incubation to allow for colony formation (FIG. 21A). […] Colonies were quantified with an automated counter and presented as mean values from triplicate independent experiments. Error bars denote standard deviations.

[5] = test system: VA-13 cells; assay: Western blot of p27 in SV40-transformed VA-13 fibroblasts; type: cell-based, human; details: 25 μM, 12 hours
Procedure: as §2
Normal WI-38 and SV40-transformed VA-13 cell lines were treated with 25 μM of (−)-EGCG, (−)-EGCG-amide, (+)-EGCG, (+)-EGCG-amide, or GTP-1 for either 12 hours or 36 hours.

[6] = biological target: purified 20S proteasome (UniProt Q9P992); assay: Inhibition of chymotrypsin-like activity of purified 20S proteasome (source not stated); type: biochemical; set-up: other: 1 μM; other: 10 μM
Procedure: as §1

Chain of purified 20S proteasome (UniProt Q9P992) (Q9P992 whole entry): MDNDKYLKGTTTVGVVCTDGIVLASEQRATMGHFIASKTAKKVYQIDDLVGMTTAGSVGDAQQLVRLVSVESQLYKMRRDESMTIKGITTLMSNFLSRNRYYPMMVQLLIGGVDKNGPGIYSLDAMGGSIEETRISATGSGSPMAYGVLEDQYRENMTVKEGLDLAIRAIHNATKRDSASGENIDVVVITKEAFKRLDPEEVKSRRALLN

Structure (SMILES) | IC50 [2] [nM] | levels of polyubiquitinated proteins [3] | levels of proteasome target proteins (p27, IκB-α) [3] | colony formation (LNCaP transformation capability) [4] | other results
O=C(O[C@@H]1Cc2c(O)cc(O)cc2O[C@@H]1c1ccc(O)c(O)c1)c1cc(O)c(O)c(O)c1 [(−)-ECG] | – | – | – | – | IC50 ([1]; chymotrypsin-like activity, rabbit 20S proteasome): 710 nM
O=C(O[C@H]1CCCC[C@H]1OC(=O)c1cc(O)c(O)c(O)c1)c1cc(O)c(O)c(O)c1 [GTP-1] | 1900 | caused accumulation of polyubiquitinated proteins | increased levels of p27, IκB-α, and Bax proteins at as early as 3 hours | completely blocked LNCaP transformation capability | levels of p27 protein [5]: significantly increased levels of p27 protein
O=C(N[C@H]1CCCC[C@H]1NC(=O)c1cc(O)c(O)c(O)c1)c1cc(O)c(O)c(O)c1 [GTP-2] | 2500 | – | – | completely blocked LNCaP transformation capability | –
O=C(N[C@H]1CCCC[C@@H]1NC(=O)c1cc(O)c(O)c(O)c1)c1cc(O)c(O)c(O)c1 [GTP-3] | 1500 | greatly increased levels of p27, IκB-α, and ubiquitinated proteins | greatly increased levels of p27, IκB-α, and ubiquitinated proteins | completely blocked LNCaP transformation capability | levels of Bax protein [3]: transiently increased levels of Bax protein
CCCC[C@@H](C=O)NC(=O)[C@H](CC(C)C)NC(=O)[C@H](CC(C)C)NC(C)=O [LLnL, reference compound] (Ac-Leu-Leu-[Nle]-aldehyde) | – | – | – | – | inhibition of proteasomal activity ([6]; 1 μM): 20%; inhibition of proteasomal activity ([6]; 10 μM): 70%
O=c1c(-c2ccc(O)cc2)coc2cc(O)cc(O)c12 [genistein] | – | – | – | – | IC50 ([1]; chymotrypsin-like activity of purified 20S proteasome): 26000 nM
